Where two headings read alike, the source gives them in different places.
Assays:
[1] = system: adult, female insects of the Musca domestica species; experiment: whole plant or invertebrate; assay type: in vivo; conditions: for Mortality: compound 1.25% w/v + tetramethrin 0.25% w/v in acetone; for synergist activity in respect of the tetramethrin: summary of Table 1, comparison with PBO
Procedure: After having mixed the products of Examples 1-4 with tetramethrin in acetone respectively at a concentration of 1.25% for the products of examples 1-4 and of 0.25% for the tetramethrin, 0.5 μl of acetone solution was applied to adult, female insects of the Musca domestica species, on the rear part of the pectoral region. The insect was then transferred to a closed plastic container approximately 12 cm in diameter and 6 cm in height and left at 25° C. with supply of 5% sugar solution. After 24 hours the alive and dead flies were examined to determine the percentage mortality. The total number of flies per container was equal to 20 and the test was repeated three times. For comparison acetone solutions at the same concentrations as previously indicated for the compounds of examples 1-4 and for tetramethrin alone were prepared.
For comparison an acetone solution at an equal concentration of piperonyl butoxide and tetramethrin and an acetone solution at the same concentration of piperonyl butoxide alone were also prepared.

Blattella germanica = experiment: Mortality test on beetles, treated glass plates with chloropyriphos or propoxur; assay type: in vivo; conditions: 24 hours exposure; for Mortalità 1gg: 1 day from application; for Mortalità 3gg: 3 days from application
Procedure: Solutions of products of examples 1 and 3 in acetone and, for comparison, of piperonyl butoxide, with the organic phosphorus compound chloropyriphos and with carbamate compound propoxur, were applied from a distance of 12 cm on glass plates (model Ostra, 15×15 cm=225 square cm) by means of a suitable glass sprayer so as to obtain an applied amount of organic phosphorous compound equal to 33 mg/square m and of carbamate equal to 500 mg/mq. The products of examples 1 e 3 and the comparison compound PBO were in a weight ratio of 5:1 w/w with respect to the organic phosphorous compound and to the carbamate.
In the same way acetone solutions of organic phosphorous compound and of carbamate compound were prepared so as to obtain an applied amount of organic phosphorous compound equal to 33 mg/square m and of carbamate compound equal to 500 mg/mq. After the application the plates were transferred to a closed test room under controlled temperature and humidity (24-25° C., RH 50-60%). Glass rings (h 5.5 cm×diameter 9.5 cm), having internal surface treated with talc and each one containing 5 beetles—Blattella germanica—were placed in the centre of the plates. They were evaluated each one after 1 day and three days from the application. For each day, the insects were maintained on the surface for 24 hours.

[2] = Musca domestica, compound alone 1.25% w/v in acetone, tetramethrin 0, 0.5 μl topical, after 24 hours, read-out: Mortality
[3] = product 165 mg/sm + chloropyriphos 33 mg/sm
[4] = product 2500 mg/sm + propoxur 500 mg/sm

Row | SMILES | mortality at 1.25 % strength [1, 2] | Mortality ([1]; 0.5 μl topical, after 24 hours) | Mortalità 1gg (Blattella germanica; [3]) | Mortalità 3gg (Blattella germanica; [3]) | Mortalità 1gg (Blattella germanica; [4]) | Mortalità 3gg (Blattella germanica; [4]) | other results
1 | CC(C)=CC1C(C(=O)OCN2C(=O)C3=C(CCCC3)C2=O)C1(C)C (stereo not shown) [tetramethrin, reference compound] |  |  |  |  |  |  | mortality at 0.25 % strength ([1]; Musca domestica, topical, 24 h): 20%
2 | CCCCOCCOCCOCc1cc2c(cc1CCCC)OCO2 [Ex. 2, 5-[2-(2-butoxyethoxy)-ethoxymethyl]-6-n-butyl-1,3-benzodioxole] | 0% | 80% |  |  |  |  | 
3 | CCCCCCCCCCc1cc2c(cc1COCCOCCOCCCC)OCO2 [Ex. 4, 5-[2-(2-Butoxyethoxy)-ethoxymethyl]-6-n-decyl-1,3-benzodioxole] | 0% | 80% |  |  |  |  | 
4 | CCCCCCc1cc2c(cc1COCCOCCOCCCC)OCO2 [Ex. 3, 5-[2-(2-Butoxy-ethoxy)-ethoxymethyl]-6-n-hexyl-1,3-benzodioxole] | 0% | 100% | 60% | 80% | 44% | 56% | synergist activity in respect of the tetramethrin [1]: most active as synergists
5 | CNC(=O)Oc1ccccc1OC(C)C [Propoxur, propoxur, reference compound] |  |  |  |  |  |  | Mortalità 1gg (Blattella germanica; propoxur alone 500 mg/sm): 20%; Mortalità 3gg (Blattella germanica; propoxur alone 500 mg/sm): 31%
6 | CCCCCCCCc1cc2c(cc1COCCOCCOCCCC)OCO2 [Ex. 1, 5-[2-(2-butoxyethoxy)-ethoxymethyl]-6-n-octyl-1,3-benzodioxole] | 0% | 100% | 62% | 85% | 48% | 60% | synergist activity in respect of the tetramethrin [1]: most active as synergists
7 | CCOP(=S)(OCC)Oc1nc(Cl)c(Cl)cc1Cl [Chloropyriphos, chloropyriphos, reference compound] |  |  |  |  |  |  | Mortalità 1gg (Blattella germanica; chloropyriphos alone 33 mg/sm): 32%; Mortalità 3gg (Blattella germanica; chloropyriphos alone 33 mg/sm): 48%
8 | CCCCOCCOCCOCc1cc2c(cc1CCC)OCO2 [PBO, 5-[2-(2-butoxyethoxy)-ethoxymethyl]6-propyl-1,3-benzodioxole, reference compound] |  |  | 45% | 65% | 35% | 42% | mortality at 1.25 % strength ([1]; Musca domestica, topical, 24 h): 0%

Source: patent US9363995B2, “Use of derivative compounds of 1,3-benzodioxole in insecticidal compositions” (ENDURA S.P.A., priority 2012, dated 2016)
